System: skin
Assay: Cumulative skin irritation test, HRIPT (human repeated insult patch test)
Type: in vivo
Parameters: key to skin reactivity (ICDRG criteria): −: Negative (no reaction); ±: Suspicious or slight erythema, etc.; +: Weak reaction (not accompanied by vesicles), erythema, papules; ++: Severe reaction (accompanied by vesicles), erythema, papules, vesicles; +++: Strong reaction, bullae
Conditions: for Number of subjects showing ±, + or ++ reactivity 1st: 1st patch; for Number of subjects showing ±, + or ++ reactivity 2nd: 2nd patch; for Number of subjects showing ±, + or ++ reactivity 3rd: 3rd patch; for Number of subjects showing ±, + or ++ reactivity 4th: 4th patch; for Number of subjects showing ±, + or ++ reactivity 5th: 5th patch; for Number of subjects showing ±, + or ++ reactivity 6th: 6th patch; for Number of subjects showing ±, + or ++ reactivity 7th: 7th patch; for Number of subjects showing ±, + or ++ reactivity 8th: 8th patch; for Number of subjects showing ±, + or ++ reactivity 9th: 9th patch; for Average reactivity: less than 3 = safe
Method: HRIPT (human repeated insult patch test) was performed to evaluate the cumulative skin irritation of quercetin 3-O-[3-O″-(E)-p-coumaroyl][β-D-glucopyranosyl-(1→3)-O-α-L-rhamnopyranosyl-(1→6)-O-β-D-glucopyranoside] and quercetin 3-O-[3-O″-(E)-p-coumaroyl][α-L-rhamnopyranosyl-(1→6)-O-β-D-glucopyranoside] and determine the range of concentration applicable to the skin. Specifically, 15 healthy adult subjects were randomly selected, and 20 μl of a test composition (composition for the skin including an emulsifier, a stabilizer, purified water, etc. in addition to each of the above compounds) containing 0.5% by weight, 1% by weight or 3% by weight of each of the compounds was dropped into each chamber (IQ chamber, Epitest Ltd, Finland) The patch was applied to the upper right side of the back of the subject, and after 24 hours from the application, it was replaced with a new patch. In this way, a total of 9 patches were applied, 3 times a week for 3 weeks. The skin reaction was checked before and after application of each patch. The skin reaction was checked until after 48 hours from the removal of the final patch, and the average reactivity was calculated. The skin reaction was evaluated according to the criteria of the International Contact Dermatitis Research Group (ICDRG). In the above table, “novel substance 31” denotes quercetin 3-O-[3-O″-(E)-p-coumaroyl][β-D-glucopyranosyl-(1→3)-O-α-L-rhamnopyranosyl-(1→6)-O-β-D-glucopyranoside], and “novel substance 32” denotes quercetin 3-O-[3-O″-(E)-p-coumaroyl][α-L-rhamnopyranosyl-(1→6)-O-β-D-glucopyranoside.

[1] = 0.5% by weight, line 1 of 3 (±)
[2] = 0.5% by weight, line 2 of 3 (+)
[3] = 0.5% by weight, line 3 of 3 (++)

CC1OC(OCC2OC(Oc3c(-c4ccc(O)c(O)c4)oc4cc(O)cc(O)c4c3=O)C(O)C(OC(=O)/C=C/c3ccc(O)cc3)C2O)C(O)C(OC2OC(CO)C(O)C(O)C2O)C1O [Novel substance 31, quercetin 3-O-[3-O″-(E)-p-coumaroyl][β-D-glucopyranosyl-(1→3)-O-α-L-rhamnopyranosyl-(1→6)-O-β-D-glucopyranoside]]
Number of subjects showing ±, + or ++ reactivity 1st [1]: 0 number of persons | Number of subjects showing ±, + or ++ reactivity 1st [2]: 0 number of persons | Number of subjects showing ±, + or ++ reactivity 1st [3]: 0 number of persons | Number of subjects showing ±, + or ++ reactivity 2nd [1]: 0 number of persons | Number of subjects showing ±, + or ++ reactivity 2nd [2]: 0 number of persons | Number of subjects showing ±, + or ++ reactivity 2nd [3]: 0 number of persons | Number of subjects showing ±, + or ++ reactivity 3rd [1]: 0 number of persons | Number of subjects showing ±, + or ++ reactivity 3rd [2]: 0 number of persons | Number of subjects showing ±, + or ++ reactivity 3rd [3]: 0 number of persons | Number of subjects showing ±, + or ++ reactivity 4th [1]: 0 number of persons | Number of subjects showing ±, + or ++ reactivity 4th [2]: 0 number of persons | Number of subjects showing ±, + or ++ reactivity 4th [3]: 0 number of persons | Number of subjects showing ±, + or ++ reactivity 5th [1]: 0 number of persons | Number of subjects showing ±, + or ++ reactivity 5th [2]: 0 number of persons | Number of subjects showing ±, + or ++ reactivity 5th [3]: 0 number of persons | Number of subjects showing ±, + or ++ reactivity 6th [1]: 0 number of persons | Number of subjects showing ±, + or ++ reactivity 6th [2]: 0 number of persons | Number of subjects showing ±, + or ++ reactivity 6th [3]: 0 number of persons | Number of subjects showing ±, + or ++ reactivity 7th [1]: 0 number of persons | Number of subjects showing ±, + or ++ reactivity 7th [2]: 0 number of persons | Number of subjects showing ±, + or ++ reactivity 7th [3]: 0 number of persons | Number of subjects showing ±, + or ++ reactivity 8th [1]: 0 number of persons | Number of subjects showing ±, + or ++ reactivity 8th [2]: 0 number of persons | Number of subjects showing ±, + or ++ reactivity 8th [3]: 0 number of persons | Number of subjects showing ±, + or ++ reactivity 9th [1]: 0 number of persons | Number of subjects showing ±, + or ++ reactivity 9th [2]: 0 number of persons | Number of subjects showing ±, + or ++ reactivity 9th [3]: 0 number of persons | Average reactivity (0.5% by weight): 0 | Number of subjects showing ±, + or ++ reactivity 1st (1% by weight, line 1 of 3 (±)): 0 number of persons | Number of subjects showing ±, + or ++ reactivity 1st (1% by weight, line 2 of 3 (+)): 0 number of persons | Number of subjects showing ±, + or ++ reactivity 1st (1% by weight, line 3 of 3 (++)): 0 number of persons | Number of subjects showing ±, + or ++ reactivity 2nd (1% by weight, line 1 of 3 (±)): 0 number of persons | Number of subjects showing ±, + or ++ reactivity 2nd (1% by weight, line 2 of 3 (+)): 0 number of persons | Number of subjects showing ±, + or ++ reactivity 2nd (1% by weight, line 3 of 3 (++)): 0 number of persons | Number of subjects showing ±, + or ++ reactivity 3rd (1% by weight, line 1 of 3 (±)): 0 number of persons | Number of subjects showing ±, + or ++ reactivity 3rd (1% by weight, line 2 of 3 (+)): 0 number of persons | Number of subjects showing ±, + or ++ reactivity 3rd (1% by weight, line 3 of 3 (++)): 0 number of persons | Number of subjects showing ±, + or ++ reactivity 4th (1% by weight, line 1 of 3 (±)): 0 number of persons | Number of subjects showing ±, + or ++ reactivity 4th (1% by weight, line 2 of 3 (+)): 0 number of persons | Number of subjects showing ±, + or ++ reactivity 4th (1% by weight, line 3 of 3 (++)): 0 number of persons | Number of subjects showing ±, + or ++ reactivity 5th (1% by weight, line 1 of 3 (±)): 0 number of persons | Number of subjects showing ±, + or ++ reactivity 5th (1% by weight, line 2 of 3 (+)): 0 number of persons | Number of subjects showing ±, + or ++ reactivity 5th (1% by weight, line 3 of 3 (++)): 0 number of persons | Number of subjects showing ±, + or ++ reactivity 6th (1% by weight, line 1 of 3 (±)): 0 number of persons | Number of subjects showing ±, + or ++ reactivity 6th (1% by weight, line 2 of 3 (+)): 0 number of persons | Number of subjects showing ±, + or ++ reactivity 6th (1% by weight, line 3 of 3 (++)): 0 number of persons | Number of subjects showing ±, + or ++ reactivity 7th (1% by weight, line 1 of 3 (±)): 0 number of persons | Number of subjects showing ±, + or ++ reactivity 7th (1% by weight, line 2 of 3 (+)): 0 number of persons | Number of subjects showing ±, + or ++ reactivity 7th (1% by weight, line 3 of 3 (++)): 0 number of persons | Number of subjects showing ±, + or ++ reactivity 8th (1% by weight, line 1 of 3 (±)): 0 number of persons | Number of subjects showing ±, + or ++ reactivity 8th (1% by weight, line 2 of 3 (+)): 0 number of persons | Number of subjects showing ±, + or ++ reactivity 8th (1% by weight, line 3 of 3 (++)): 0 number of persons | Number of subjects showing ±, + or ++ reactivity 9th (1% by weight, line 1 of 3 (±)): 0 number of persons | Number of subjects showing ±, + or ++ reactivity 9th (1% by weight, line 2 of 3 (+)): 0 number of persons | Number of subjects showing ±, + or ++ reactivity 9th (1% by weight, line 3 of 3 (++)): 0 number of persons | Average reactivity (1% by weight): 0 | Number of subjects showing ±, + or ++ reactivity 1st (3% by weight, line 1 of 3 (±)): 0 number of persons | Number of subjects showing ±, + or ++ reactivity 1st (3% by weight, line 2 of 3 (+)): 0 number of persons | Number of subjects showing ±, + or ++ reactivity 1st (3% by weight, line 3 of 3 (++)): 0 number of persons | Number of subjects showing ±, + or ++ reactivity 2nd (3% by weight, line 1 of 3 (±)): 0 number of persons | Number of subjects showing ±, + or ++ reactivity 2nd (3% by weight, line 2 of 3 (+)): 0 number of persons | Number of subjects showing ±, + or ++ reactivity 2nd (3% by weight, line 3 of 3 (++)): 0 number of persons | Number of subjects showing ±, + or ++ reactivity 3rd (3% by weight, line 1 of 3 (±)): 0 number of persons | Number of subjects showing ±, + or ++ reactivity 3rd (3% by weight, line 2 of 3 (+)): 0 number of persons | Number of subjects showing ±, + or ++ reactivity 3rd (3% by weight, line 3 of 3 (++)): 0 number of persons | Number of subjects showing ±, + or ++ reactivity 4th (3% by weight, line 1 of 3 (±)): 0 number of persons | Number of subjects showing ±, + or ++ reactivity 4th (3% by weight, line 2 of 3 (+)): 0 number of persons | Number of subjects showing ±, + or ++ reactivity 4th (3% by weight, line 3 of 3 (++)): 0 number of persons | Number of subjects showing ±, + or ++ reactivity 5th (3% by weight, line 1 of 3 (±)): 0 number of persons | Number of subjects showing ±, + or ++ reactivity 5th (3% by weight, line 2 of 3 (+)): 0 number of persons | Number of subjects showing ±, + or ++ reactivity 5th (3% by weight, line 3 of 3 (++)): 0 number of persons | Number of subjects showing ±, + or ++ reactivity 6th (3% by weight, line 1 of 3 (±)): 0 number of persons | Number of subjects showing ±, + or ++ reactivity 6th (3% by weight, line 2 of 3 (+)): 0 number of persons | Number of subjects showing ±, + or ++ reactivity 6th (3% by weight, line 3 of 3 (++)): 0 number of persons | Number of subjects showing ±, + or ++ reactivity 7th (3% by weight, line 1 of 3 (±)): 0 number of persons | Number of subjects showing ±, + or ++ reactivity 7th (3% by weight, line 2 of 3 (+)): 0 number of persons | Number of subjects showing ±, + or ++ reactivity 7th (3% by weight, line 3 of 3 (++)): 0 number of persons | Number of subjects showing ±, + or ++ reactivity 8th (3% by weight, line 1 of 3 (±)): 0 number of persons | Number of subjects showing ±, + or ++ reactivity 8th (3% by weight, line 2 of 3 (+)): 0 number of persons | Number of subjects showing ±, + or ++ reactivity 8th (3% by weight, line 3 of 3 (++)): 0 number of persons | Number of subjects showing ±, + or ++ reactivity 9th (3% by weight, line 1 of 3 (±)): 0 number of persons | Number of subjects showing ±, + or ++ reactivity 9th (3% by weight, line 2 of 3 (+)): 0 number of persons | Number of subjects showing ±, + or ++ reactivity 9th (3% by weight, line 3 of 3 (++)): 0 number of persons | Average reactivity (3% by weight): 0 | skin reactivity (ICDRG criteria) (within the content range 0.5, 1, 3% by weight, 9 patches, 15 subjects): −
